These are literature values, as cited in patent US20100239681A1, “Controlled Release Particulates Containing Water-Insoluble Drug” (Biokey, Inc., priority 2009, published 2010).

The conditions of the series: at 25° C.

As for `Oc1ccc(C=Cc2cc(O)cc(O)c2)cc1` [resveratrol], the water solubility is below 30 µg/mL.
